This is an account of results in a melting point compilation (Tetko et al.; mined from patent text by program, amines drawn as free bases though some values may be those of a salt).

Bounds are passed on as bounds.

As for `O=C(O)CCCc1c(-c2ccc(F)cc2)[nH]c2ccc(-c3ccc(O)cc3)cc12`, the melting point (in general, the temperature of the solid-liquid transition) was in the range of 180 to 183 °C. Under `CCCCSc1c[nH]nc1C1CN2CCC1CC2` (stereo not given) stands 162 to 164 °C; under `COc1ccc(N=C(NC(=O)Nc2ccc(-c3ncn(-c4ccc(C(F)(F)F)cc4)n3)cc2)SCOC(=O)C(C)C)c(C)c1`, 160 to 164 °C; under `CC(O)C=CS(C)(=O)=O` (stereo not given), 70 to 72 °C. With `CCCn1c(=O)c2c(nc(C=Cc3ccc(S(=O)(=O)O)cc3)n2C)n(CCC)c1=O` the figure was > 270 °C. With `CS(=O)(=O)c1ccc(C(=O)C2C(=O)N(C(N)=O)c3ccc(Cl)cc32)s1` (stereo not given) the figure was 212 to 214 °C; with `Cc1cc(S)n2nc(C(=O)NN)nc2n1`, 221 to 222 °C; with `CS(=O)(=O)Nc1cccc(OCCCN2CCC(OC(c3ccccc3)c3ccccc3)CC2)c1`, 90 to 95.5 °C. Consider `COc1c(F)cccc1OCCN1C(=O)c2ccccc2C1=O`, for which the melting point lay within 112 to 113 °C.

On to `O=C(O)CC[C@@H](Cc1ccc(OCc2ccccc2)cc1)NC(=O)CCCCCCc1ccccc1`, for which the melting point fell in the range of 128 to 130 °C. Compound `O=C(O)Cc1nc(-c2ccc(F)cc2)oc1-c1ccoc1` showed a melting point of 208 to 209 °C.

`CN1C(=O)CN=C(c2ccccc2F)c2cc(NC(=O)NCCCl)ccc21` had a melting point of 240 °C. Under `COc1cc2ncnc(N3c4ccccc4CC3CO)c2cc1OC` (stereo not given) stands 146 to 147 °C. For the compound `CCn1cc(C(=O)O)c(=O)c2c(F)c(F)c(N3CCN(C)CC3)c(F)c21`, the melting point is 221 to 223 °C. With `CC(C)(C)c1ccc(CC2OCCN(Cc3ccccc3)C2=O)cc1` (stereo not given) the figure was 190 to 193 °C; with `CCN1C(=O)C(C)(C)C(=O)N(C)c2cc(CN(CCn3c(=O)ccc4ccccc43)Cc3cccnc3C)ccc21`, 149 to 150 °C; with `CCCONC(=O)c1nc(-c2ccc(Cl)c(OC)c2F)cc(N)c1Cl`, 165 to 168 °C. Under `Cc1nc(Cl)c2c(c1O)COC2C` (stereo not given) stands 248 °C; under `C=CC(=O)[C@H](Cc1cc(F)cc(F)c1)NC(=O)OC(C)(C)C`, 115 °C.

Compound `COc1ccc(-c2nc(N3CCN(C)CC3)c3c(C)c(C#N)sc3n2)cc1OC` yielded a melting point of 208 to 209 °C. Compound `O=C(Nc1ccc(Cl)cn1)c1cc(Cl)ccc1NCC1CCN(C2CCCC2)CC1` came in with a melting point of 170 to 171 °C. With `N#CC(=Cc1ccc(CBr)cc1)S(=O)(=O)c1ccccc1` the figure was 120 to 122 °C; with `O=C(O)c1cc(NC(=O)C(CS)Cc2ccccc2)ccc1O` (stereo not given), 206 to 209 °C; with `O=C(c1cccc(OCc2ccccc2)c1)C(CCc1nnn[nH]1)c1ccccc1` (stereo not given), 136 to 138 °C.

For `Oc1ccc2ccc(OCCN3CCC(Cc4ccccc4)CC3)cc2c1`, the melting point was 159 to 160 °C. `CN(C)CCCN1C(=O)C(NC(=O)Nc2ccccc2)C(=O)N(CC23CC4CC(CC(C4)C2)C3)c2ccccc21` (stereo not given): the melting point is 138 to 140 °C. With `CNc1nc(-c2cccc(NC(=O)c3ccc(OC)c(OC)c3)c2)c2cc(OC)c(OC)cc2n1` the figure was 128 to 130 °C. Under `COC(=O)CCc1conc1-c1ccc(Cl)cc1` stands 56 to 57 °C; under `COC(=O)c1cnc(S)n1C1CC(C)c2ccccc21` (stereo not given), 177 °C. Under `CS(=O)(=O)NCCNc1ccc([N+](=O)[O-])cc1` stands 154 °C; under `Oc1cc2[nH]c3c(O)c(O)cc(Br)c3c2cc1O`, > 260 °C; under `CN(C)CCOC(=O)C(=O)c1ccc(OCCOc2ccc3ccccc3c2)s1`, 76 to 77 °C. The compound `CC(c1cc2cc(F)ccc2s1)N(O)C(N)=O` (stereo not given) came in with a melting point of 149 to 153 °C. Under `CCOCn1c(Nc2cc(C)cc(C)c2)c(CC)c(=O)[nH]c1=O` stands 175 to 176 °C; under `CCc1cnc(-c2ccc(OC)cc2)c(-c2ccc(OC)cc2)n1`, 76.5 to 78 °C; under `CON(c1ccc([N+](=O)[O-])cc1[N+](=O)[O-])S(=O)(=O)c1ccc(C)cc1`, 146 to 148 °C.

`CCc1nnc(CCc2ccc([N+](=O)[O-])cc2)o1` returned a melting point of 65 to 66 °C. With `COc1cc(NC(=O)Nc2ccccc2)cc(Cl)n1` the figure was 161 to 162 °C. For the compound `CSc1cccc(SC)c1S(=O)(=O)NC(C)(C)C`, the melting point is 182 to 185 °C. Under `Nc1ccc2c(c1)OCC(CN1CC=C(c3c[nH]c4ccc(F)cc34)CC1)O2` (stereo not given) stands 172 to 174 °C; under `CCOC(=O)C(C)Cc1ccnc(-c2nc(=O)c3ccccc3s2)c1` (stereo not given), 120 to 121 °C. `CC(C)(C)N[C@@H]1Cc2c(O)cccc2C[C@H]1O` (relative stereo) had a melting point of 123 to 127 °C.

Regarding `O=C(C=Cc1ccc2ccccc2c1)NCCCCCC(=O)NO`, the melting point lay within 161 to 163 °C.

As to `COc1ccc(-c2nc(S(=O)(=O)c3ccc(Cl)cc3)[nH]c2-c2ccc(OC)cc2)cc1`, the melting point was 187 to 188 °C. Under `Fc1ccccc1COc1cccnc1NC(=S)Nc1ccc(Cl)cc1` stands 141 °C. With `CCOC(=O)C1=Cc2cc3ccccc3n2CC1` the figure was 77 to 79 °C; with `O=S1(=O)c2sccc2C=C(CO)N1CCN1CCOCC1`, 119 to 121 °C. With `COc1cc2c(cc1OC)C(c1ccc(Cl)cc1)=NN=C(C)C2` the figure was 188 to 198 °C; with `CN(C)CCCOc1ccccc1CC(=O)O`, 98 °C. Consider `CNc1ccc([N+](=O)[O-])cc1N`, for which the melting point was in the range of 171 to 173 °C.

In turn, `CC(C)(C)OC(=O)NCC(=O)OCCCCNc1cccc2c1C(=O)c1ccccc1C2=O` displayed a melting point of 70 °C.

With `CCCCCCCCc1nc2c(N)nc3ccccc3c2n1CCOCCCc1ccccc1`, the melting point was 104 °C. Under `CC(C)(C)[S@@](=O)/N=C/c1cc(F)cc(C#N)c1` stands 93 to 99 °C.

Take `CC(=NO)c1ccc(OCC(O)(Cn2cncn2)C(C)(C)C)cc1` (stereo not given): the melting point lay within 129 to 132 °C.

`C[C@@H](Cn1ncc2ccc3c(c21)C[C@@H](OCC(=O)OC(C)(C)C)CO3)N=[N+]=[N-]` had a melting point of 77 to 78 °C. On to `CCCN(C(=O)COc1c(Cl)cccc1Cl)C1CCc2c(ccc(O)c2O)C1` (stereo not given), for which the melting point is 157 to 159 °C. `NS(=O)(=O)c1ncccc1S` returned a melting point of 102 to 104 °C.

For the compound `CCCCn1c(CO)nc2cnc3ccccc3c21`, the melting point fell in the range of 146 to 149 °C. Under `CCCOC1(OC)C=CC=C(N2CCC(c3noc4cc(F)ccc34)CC2)C1O` (stereo not given) stands 134 to 135 °C. With `CCCN(CCCc1c[nH]c2ccc(Cl)cc12)C1COc2c(F)ccc(C(N)=O)c2C1` (stereo not given) the figure was 148 to 154 °C. Under `CC(C)(C)OC(=O)CN(C(=O)CN1C(=O)c2ccccc2C1=O)c1ccccc1Oc1ccccc1` stands 145 °C; under `Cc1cccc(NS(=O)(=O)c2cc(S(=O)(=O)Nc3cccc(C)c3)c3cc(O)ccc3c2)c1`, 115 to 117 °C. For the compound `COc1cc(C)c([N+](=O)[O-])c(C)c1`, the melting point was in the range of 50 to 52 °C.

In the case of `COC(=O)SN(C(=O)NC(=O)c1c(F)cccc1F)c1ccc(Oc2ccc(C(F)(F)F)cc2Cl)cc1`, the melting point lay within 108 to 109 °C.

In the case of `CCC(C)(Oc1ccc(OCc2cc(-c3ccc(OCc4ccccc4)cc3)no2)cc1)C(=O)O` (stereo not given), the melting point was 132 to 134 °C. Under `C=CSc1nc(-c2ccc(OC)cc2)c(-c2ccc(OC)cc2)[nH]1` stands 114 to 115 °C. Compound `CN(c1ccccc1)c1nc(Cl)nc(N2CCOCC2)n1` displayed a melting point of 93.5 to 95.5 °C.

`COc1cccc(CCCC(=O)O)c1OC` yielded a melting point of 58 to 59 °C.

`O=CNC[C@H](O)C(=O)OC=O` returned a melting point of 140 to 142 °C.

Turning to `Cc1nc2cc(NC(=O)c3cc4cc(F)ncc4n3Cc3cccc(F)c3)ccc2s1`, the melting point was 193 to 195 °C. With `C=C(c1ccc(Br)cc1)c1ccc(N(C)C)cc1` the figure was 126 to 127 °C; with `C[C@@H](CSc1nc2ccccc2cc1-c1ccccc1)NC(=O)OC(C)(C)C`, 86 to 87 °C.

In turn, `COc1cc(CN(C(N)=S)[C@@H](COC(=O)C(C)(C)C)Cc2ccccc2)ccc1OCCN` gave a melting point of 49 °C. In turn, `Nc1cccc(-c2ccc(CCN3CC4C(C3)C4NC(=O)Cc3ccc(F)cc3)cc2)n1` (stereo not given) returned a melting point of 161 to 163 °C. With `Cn1c(=O)c2c(Br)cccc2n2cnc(-c3noc(C4CC4)n3)c12` the figure was 207 °C; with `O=C(NCc1ccccn1)Nc1cc(N2CC(c3ccccc3)OC2=O)ccn1` (stereo not given), 190 to 191 °C; with `CCNc1nc(Nc2ccccc2C)c2ccccc2n1`, 127 to 129 °C. As to `CCCCN(CCCC12CC3CC(CC(C3)C1)C2)C(=O)NCCCc1ccncc1`, the melting point was 79.8 to 80.4 °C.

As for `COP(C)(=O)C1CC(c2ccccc2)=NO1` (stereo not given), the melting point is 72 to 74 °C. Under `Cn1cc(C(N)=O)c(Cl)n1` stands 164 to 166 °C. Compound `CCOc1c(OC)cc(C(=O)N2CCN(C(=O)C3=Cc4cc(OC)c(OC)cc4CCC3)CC2)cc1OC` yielded a melting point of 171 to 172 °C. Under `CCC12CCC3C4CCCC=C4CCC3C1CCC2O` (stereo not given) stands 118 to 120 °C. Under `CCOC(=O)C1(C(=O)OCC)N(Cc2ccc(OC)cc2OC)C(=O)CC1(C)O` (stereo not given) stands 106 to 107 °C; under `O=C(O)C(Br)c1ccc(Cl)cc1` (stereo not given), 92 to 93 °C; under `O=c1c2c(oc3c1nnn3Cc1ccccc1)CCS2`, 157 to 160 °C. Under `CC1CN(c2c(F)cc3c(=O)c(C(=O)O)cn4c3c2CC4C)CC(C)N1C` (single isomer, unassigned; (+)) stands 204 to 206 °C. `COc1cccc(Cc2ccc(-c3cnn4c(O)ccnc34)cc2)c1` came in with a melting point of 246 to 249 °C. `COC(=O)Cc1ccc(Sc2ccccc2C(=O)O)c([N+](=O)[O-])c1` returned a melting point of 135 to 136 °C. Under `CN(C)CCc1cccc(OCCCNc2nc(N)nn2C)c1` stands 81 to 82 °C; under `O=C1OC(c2ccc(Cl)c(S(=O)(=O)Cl)c2)c2ccccc21` (stereo not given), 158 to 159 °C.
